# Experimental data reported in patent US20100197789A1, “ANTI-OBESITY AGENT AND USE THEREOF” (National University Corporation Nagoya University, priority 2006, published 2010).
# Assays:
# POMC mRNA = assay: In situ hybridization, POMC mRNA in hypothalamic arcuate nucleus, DIO mice; type: in vivo, mouse; details: (±)-baclofen oral 5 weeks
# Experimental: A hypothalamic section with a thickness of 12 μm was prepared from the brain preserved at −80° C. by using a cryostat and stuck to a MAS coat slide and then in situ hybridization was performed. For a label of NPY mRNA and POMC mRNA probes, ^35S was used. The hypothalamic section was pretreated by using triethanolamine, ethanol and the like, and then 12 hour-hybridization was performed at 55° C. After the hybridization, the hypothalamic section was treated by washing with SSC, RNase, etc. After development to a film, the mRNA expression strength was assayed by using the NIH image.
# (±)-baclofen was orally administered to DIO mice for 5 weeks according to the above method, and then the DIO mice were sacrificed. A brain was surgically removed, and changes in expression amounts of NPY mRNA and POMC mRNA in the hypothalamic arcuate nucleus were examined by using an in situ hybridization method.
# db/^+m mice = assay: Food intake amount and body weight, 5 week-continuous oral administration, non-obese db/+m mice; type: in vivo, mouse; details: (±)-baclofen 2.7 mg/dl in drinking water, 5 weeks
# Experimental: 5 week-old male C57BL/KsJ-db/^+m mice (db/^+m mice: body weight 19 to 23 g, Japan SLC, Inc.) were purchased and individually fed in tip cages. To the db/^+m mice, normal pellet diet (CE-2) was administered under free water intake and free food intake. A body weight and a food intake amount over 24 hours were measured every day from the start of feeding. On day 3 after the start of feeding, blood was taken from an orbit after 6 hour-fasting and a blood glucose level and a blood insulin concentration were measured. The db/^+m mice were divided into two groups (10 mice per each group) so that a body weight, a 24 hour-food intake amount, a blood glucose level, and a blood insulin concentration were equal, and defined to be a control group and a baclofen treated group. After division into the groups, from day 5 after the start of feeding, (±)-baclofen was dissolved in drinking water and 5 week-continuous oral administration was started in the baclofen treated group. (±)-baclofen was dissolved in drinking water at a concentration of 2.7 mg/dl used in the high concentration treated group in the experiment of db/db mice. A food intake amount and a body weight of the db/^+m mice were measured over time, and a rectal temperature was measured 5 weeks after the start of the administration. Blood was taken after the 5-week administration of (±)-baclofen, and the db/^+m mice were sacrificed by cervical luxation.
# 5 week-old male C57BL/KsJ-db/db mice (db/db mice: body weight 19 to 25 g, Japan SLC, Inc.) were purchased and individually fed in tip cages. Normal pellet diet (CE-2) was administered to the db/db mice under free water intake and free food intake. A body weight and a food intake amount over 24 hours were measured every day from the start of feeding. On day 3 after the start of feeding, blood was taken from an orbit after 6 hour-fasting and a blood glucose level and a blood insulin concentration were measured. The db/db mice were divided into three groups (10 mice per each group) so that a body weight, a 24 hour-food intake amount, a blood glucose level, and a blood insulin concentration were equal and defined to be a control group, an SKF97541 treated group and a 3-APPA treated group. SKF97541 and 3-APPA were dissolved in drinking water at respective concentrations of 10×10^−6 M and 100×10^−6 M, and continuously orally administered for 5 weeks, and a food intake amount and a body weight were measured over time during the administration period. SKF97541 (10×10^−6 M) or 3-APPA (100×10^−6M) was dissolved in drinking water and orally administered also to db/^+m mice, and a food intake amount and a body weight were measured over time in the same manner.
structure (smiles),measurement,setting,value
"NCC(CC(=O)O)c1ccc(Cl)cc1 (racemic) [(±)-baclofen, (RS)-4-amino-3-(4-chlorophenyl)butanoic acid]",expression of POMC mRNA in the hypothalamic arcuate nucleus,POMC mRNA,significantly increased
same,body weight,db/^+m mice,did not give significant effects
same,food intake amount,db/^+m mice,did not give significant effects
